Data reported in US20240197726A1, “NOVEL TETRAHYDROISOQUINOLINE ALKALOID COMPOUND CONTAINING MACROCYCLE” (THE UNIVERSITY OF TOKYO, priority 2021, published 2024).

How the values were obtained:
Type in all cases: cell-based
[1] = tested on: BSY-1 breast cancer cells; experiment: antitumor activity, sulforhodamine B cell growth assay, BSY-1; settings: BSY-1, drug exposure 48 hours; read-out: GI50 value: 50% growth inhibitory concentration
Protocol: (§1) The THIQ compound containing a macrocyclic structure of the present invention was administered to various cancer cell lines, and the antitumor activity (Go value) was observed. Specifically, verification was performed according to the literature (Yamori, T.; Matsunaga, A.; Sato, S.; Yamazaki, K.; Komi, A.; Ishizu, K. et al. Cancer Res. 1999, 59, 4042) by the following procedure.
(§2) Cells were plated at an appropriate density in a 96-well plate in RPMI 1640 together with 5% fetal bovine serum, and adhered overnight. The cells were exposed to a drug for 48 hours. Then, according to the sulforhodamine B assay described by Skehan et al (Skehan P., Storeng R., Scudiero D., Monks A., McMahon J., Vistica D., Warren J. T., Bokesch H., Kenney S., Boyd M. R. J Natl. Cancer Inst, 1990, 82, 1107-1112), the cell growth rate was measured. The absorbance of the control well (C) and the test well (T) was measured at 525 nm. In addition, the time at which the drug was added was set as time 0, and the absorbance for the test well (T0) was measured. Using these measured values, the cell growth inhibitory effect (% growth=PG) was calculated by the following formula at each concentration of the drug.
(§3) (T<T0): PG=100×[(T−T0)/T]
(§4) The PG values determined above for each cell line were plotted against the concentration (logarithm) on a semi-logarithmic graph, and summarized for each visceral cancer. Concentrations at which the dose-response curve of each cell line crossed the horizontal line of PG=50%, 0%, or −50% were calculated. These concentrations were defined as Log GI50, Log TGI, and Log LC50. Actually, using two data points of the drug concentration before and after crossing each horizontal line, the drug concentration (logarithmic value) at the intersection of the straight line connecting the two points and the horizontal line for each PG was calculated.

[2] = tested on: HBC-5 breast cancer cells; experiment: antitumor activity, sulforhodamine B cell growth assay, HBC-5; settings: HBC-5, drug exposure 48 hours; read-out: GI50 value: 50% growth inhibitory concentration
Protocol: as §1, §2, §3, §4

[3] = tested on: MCF-7 breast cancer cells; experiment: antitumor activity, sulforhodamine B cell growth assay, MCF-7; settings: MCF-7, drug exposure 48 hours; read-out: GI50 value: 50% growth inhibitory concentration
Protocol: as §1, §2, §3, §4

[4] = tested on: MDA-MB-231 breast cancer cells; experiment: antitumor activity, sulforhodamine B cell growth assay, MDA-MB-231; settings: MDA-MB-231, drug exposure 48 hours; read-out: GI50 value: 50% growth inhibitory concentration
Protocol: as §1, §2, §3, §4

[5] = tested on: U251 central nervous system cancer cells; experiment: antitumor activity, sulforhodamine B cell growth assay, U251; settings: U251, drug exposure 48 hours; read-out: GI50 value: 50% growth inhibitory concentration
Protocol: as §1, §2, §3, §4

[6] = tested on: SF-268 central nervous system cancer cells; experiment: antitumor activity, sulforhodamine B cell growth assay, SF-268; settings: SF-268, drug exposure 48 hours; read-out: GI50 value: 50% growth inhibitory concentration
Protocol: as §1, §2, §3, §4

[7] = tested on: SF-295 central nervous system cancer cells; experiment: antitumor activity, sulforhodamine B cell growth assay, SF-295; settings: SF-295, drug exposure 48 hours; read-out: GI50 value: 50% growth inhibitory concentration
Protocol: as §1, §2, §3, §4

[8] = tested on: SF-539 central nervous system cancer cells; experiment: antitumor activity, sulforhodamine B cell growth assay, SF-539; settings: SF-539, drug exposure 48 hours; read-out: GI50 value: 50% growth inhibitory concentration
Protocol: as §1, §2, §3, §4

[9] = tested on: HCC2998 colorectal cancer cells; experiment: antitumor activity, sulforhodamine B cell growth assay, HCC2998; settings: HCC2998, drug exposure 48 hours; read-out: GI50 value: 50% growth inhibitory concentration
Protocol: as §1, §2, §3, §4

[10] = tested on: KM-12 colorectal cancer cells; experiment: antitumor activity, sulforhodamine B cell growth assay, KM-12; settings: KM-12, drug exposure 48 hours; read-out: GI50 value: 50% growth inhibitory concentration
Protocol: as §1, §2, §3, §4

[11] = tested on: NCI-H23 lung cancer cells; experiment: antitumor activity, sulforhodamine B cell growth assay, NCI-H23; settings: NCI-H23, drug exposure 48 hours; read-out: GI50 value: 50% growth inhibitory concentration
Protocol: as §1, §2, §3, §4

[12] = tested on: NCI-H226 lung cancer cells; experiment: antitumor activity, sulforhodamine B cell growth assay, NCI-H226; settings: NCI-H226, drug exposure 48 hours; read-out: GI50 value: 50% growth inhibitory concentration
Protocol: as §1, §2, §3, §4

[13] = tested on: DMS273 lung cancer cells; experiment: antitumor activity, sulforhodamine B cell growth assay, DMS273; settings: DMS273, drug exposure 48 hours; read-out: GI50 value: 50% growth inhibitory concentration
Protocol: as §1, §2, §3, §4

[14] = tested on: DMS114 lung cancer cells; experiment: antitumor activity, sulforhodamine B cell growth assay, DMS114; settings: DMS114, drug exposure 48 hours; read-out: GI50 value: 50% growth inhibitory concentration
Protocol: as §1, §2, §3, §4

[15] = tested on: LOX-IMVI melanoma cells; experiment: antitumor activity, sulforhodamine B cell growth assay, LOX-IMVI; settings: LOX-IMVI, drug exposure 48 hours; read-out: GI50 value: 50% growth inhibitory concentration
Protocol: as §1, §2, §3, §4

[16] = tested on: OVCAR-3 cancer cells; experiment: antitumor activity, sulforhodamine B cell growth assay, OVCAR-3; settings: OVCAR-3, drug exposure 48 hours; read-out: GI50 value: 50% growth inhibitory concentration
Protocol: as §1, §2, §3, §4

[17] = tested on: OVCAR-4 cancer cells; experiment: antitumor activity, sulforhodamine B cell growth assay, OVCAR-4; settings: OVCAR-4, drug exposure 48 hours; read-out: GI50 value: 50% growth inhibitory concentration
Protocol: as §1, §2, §3, §4

[18] = tested on: ACHN kidney cancer cells; experiment: antitumor activity, sulforhodamine B cell growth assay, ACHN; settings: ACHN, drug exposure 48 hours; read-out: GI50 value: 50% growth inhibitory concentration
Protocol: as §1, §2, §3, §4

[19] = tested on: MKN45 gastric cancer cells; experiment: antitumor activity, sulforhodamine B cell growth assay, MKN45; settings: MKN45, drug exposure 48 hours; read-out: GI50 value: 50% growth inhibitory concentration
Protocol: as §1, §2, §3, §4

[20] = tested on: MKN74 gastric cancer cells; experiment: antitumor activity, sulforhodamine B cell growth assay, MKN74; settings: MKN74, drug exposure 48 hours; read-out: GI50 value: 50% growth inhibitory concentration
Protocol: as §1, §2, §3, §4

[21] = tested on: PC-3 prostate cancer cells; experiment: antitumor activity, sulforhodamine B cell growth assay, PC-3; settings: PC-3, drug exposure 48 hours; read-out: GI50 value: 50% growth inhibitory concentration
Protocol: as §1, §2, §3, §4

COc1c(C)cc2c(c1O)C1C3Cc4c5c(C)c6c(c4C(CNC(=O)C(C)NC(=O)OCC4C=C(CO5)CC5C(=O)N(c7ccccc7)C(=O)C45)N3C(C#N)C(C2)N1C)OCO6 (stereo not drawn) [Compound 18]
GI50 [1]: 19 nM | GI50 [2]: 38 nM | GI50 [3]: 22 nM | GI50 [4]: 41 nM | GI50 [5]: 50 nM | GI50 [6]: 74 nM | GI50 [7]: 300 nM | GI50 [8]: 33 nM | GI50 [9]: 95 nM | GI50 [10]: 100 nM | GI50 [11]: 110 nM | GI50 [12]: 280 nM | GI50 [13]: 100 nM | GI50 [14]: 12 nM | GI50 [15]: 27 nM | GI50 [16]: 43 nM | GI50 [17]: 350 nM | GI50 [18]: 240 nM | GI50 [19]: 78 nM | GI50 [20]: 120 nM | GI50 [21]: 170 nM

C=C1/C=C/CN[C@@H](C)C(=O)NCC2c3c(c(c(C)c4c3OCO4)OC1)C[C@H]1[C@H]3c4c(cc(C)c(OC)c4O)C[C@@H]([C@H](C#N)N21)N3C [Compound 33]
GI50 [1]: 18 nM | GI50 [2]: 40 nM | GI50 [3]: 26 nM | GI50 [4]: 52 nM | GI50 [5]: 55 nM | GI50 [6]: 110 nM | GI50 [7]: 270 nM | GI50 [8]: 46 nM | GI50 [9]: 140 nM | GI50 [10]: 110 nM | GI50 [11]: 93 nM | GI50 [12]: 260 nM | GI50 [13]: 140 nM | GI50 [14]: 31 nM | GI50 [15]: 31 nM | GI50 [16]: 70 nM | GI50 [17]: 400 nM | GI50 [18]: 260 nM | GI50 [19]: 41 nM | GI50 [20]: 260 nM | GI50 [21]: 190 nM
